The record followed here is article PMC6946167, “Characterization of Aspergillus nidulans TRAPPs uncovers unprecedented similarities between fungi and metazoans and reveals the modular assembly of TRAPPII” (PLoS Genetics, 2019).

Test [1] addresses T1, RAB1 (RabO) (Aspergillus nidulans, UniProt C8V3Z5).
T1 construct: gene ANIA_04281; GST fusion, expressed in E. coli, purified on glutathione-Sepharose 4B, GDP-loaded; GST not reported cut
The test is described as follows: GDP/mant-GDP exchange, Trp-to-mant FRET ([…] nm), exponential fit. The format is binding. The note with it: 5 uM GDP-loaded GST-RAB1, 50 uM mant-GDP, 10 mM MgCl2, 10 mM KCl, 2 mM DTT, 50 mM Tris-HCl pH 7.5, 30 C; no GEF.

For test [2], the target named is TRAPPII from tca17Δ cells (Aspergillus nidulans). The test is described as follows: negative-stain electron microscopy; Trs120-S-purified complexes eluted from S-agarose with S-peptide, concentrated, stained with 2% uranyl acetate; single particle 2D classification.

T1 sequence (C8V3Z5 entry or part of it): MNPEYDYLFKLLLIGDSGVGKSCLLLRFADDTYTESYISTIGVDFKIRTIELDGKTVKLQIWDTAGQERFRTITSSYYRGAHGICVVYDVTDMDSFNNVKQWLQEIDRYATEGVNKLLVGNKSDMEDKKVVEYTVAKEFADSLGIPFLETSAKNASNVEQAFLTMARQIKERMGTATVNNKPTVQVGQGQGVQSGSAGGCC

Regarding `Nc1nc2c(ncn2[C@@H]2O[C@H](COP(=O)(O)OP(=O)(O)O)[C@@H](O)[C@H]2O)c(=O)[nH]1` [GDP], the koff entry in test [1] was “Time courses of mant-GDP exchange for GDP were used to calculate the observed koff of GDP”.

As to TRAPPII from tca17Δ cells (complex), the percent of particles that are TRAPPII dimers in test [2] is 12%.
